Results as given in PubChem BioAssay AID222 (DTP/NCI, 2004).
“And” between values parts separate entries of the source, which are not always exact repeats. Identical values can stand only once. Toxic doses and inconclusive results are not listed. Rule for the calls: active = survival T/C of 150% or more; inactive = T/C below 125% in these data.

Test system: C57BL/6 mice, intracerebral ependymoblastoma, median survival T/C
Assay: NCI In Vivo Anticancer Drug Screen. Data for tumor model Ependymoblastoma (intracerebral) in C57BL/6 mice
Conditions: endpoint: median survival time, higher = longer survival
Method: The antitumor activity of compounds was measured in mice bearing transplantable tumors. Survival or tumor size were measured and the results are expressed as the measurement made in the treated group (T) divided by the measurement made in the vehicle treated control group (C). The tumor model used in this assay is Ependymoblastoma (intracerebral) in C57BL/6 mice

[1] = dose: 0.5 mg/kg/injection, schedule: Q01DX001 (ip), vehicle: saline
[2] = dose: 0.5 mg/kg/injection, schedule: Q01DX005 (ip), vehicle: saline
[3] = dose: 1.0 mg/kg/injection, schedule: Q01DX001 (ip), vehicle: saline
[4] = dose: 1.0 mg/kg/injection, schedule: Q01DX005 (ip), vehicle: saline
[5] = dose: 2.0 mg/kg/injection, schedule: Q01DX001 (ip), vehicle: saline
[6] = dose: 2.0 mg/kg/injection, schedule: Q01DX005 (ip), vehicle: saline
[7] = dose: 8.0 mg/kg/injection, schedule: Q01DX005 (ip), vehicle: saline

Measured: T/C

COc1cccc2c1C(=O)c1c(O)c3c(c(O)c1C2=O)C[C@@](O)(C(=O)CO)C[C@@H]3OC1CC(N)C(O)C(C)O1 (stereo not given in full)
inactive: dose: 0.12 mg/kg/injection, schedule: Q01DX001 (ip), vehicle: saline 96 % of control | dose: 0.25 mg/kg/injection, schedule: Q01DX001 (ip), vehicle: saline 86 % of control | dose: 0.25 mg/kg/injection, schedule: Q01DX005 (ip), vehicle: saline 108 % of control | dose: 0.25 mg/kg/injection, schedule: Q01DX009 (ip), vehicle: saline 107 % of control | dose: 0.25 mg/kg/injection, schedule: Q07DX003 (ip), vehicle: saline 106 % of control | dose: 0.25 mg/kg/injection, schedule: Q## X006 (ip), vehicle: saline 100 % of control | [1] 88 % of control | [2] 108 % of control | dose: 0.5 mg/kg/injection, schedule: Q01DX009 (ip), vehicle: saline 103 % of control | dose: 0.5 mg/kg/injection, schedule: Q## X006 (ip), vehicle: saline 119 % of control | dose: 0.5 mg/kg/injection, schedule: Q#A X002 (ip), vehicle: saline 105 % of control | [3] 96 % of control (2×) and 100 % of control | [4] 110 % of control | dose: 1.0 mg/kg/injection, schedule: Q01DX005 (oral), vehicle: saline 100 % of control | dose: 1.0 mg/kg/injection, schedule: Q07DX003 (ip), vehicle: saline 96 % of control | dose: 1.0 mg/kg/injection, schedule: Q## X006 (ip), vehicle: saline 110 % of control | dose: 1.0 mg/kg/injection, schedule: Q#A X002 (ip), vehicle: saline 97 % of control | [5] 104 % of control and 106 % of control and 111 % of control | [6] 103 % of control | dose: 2.0 mg/kg/injection, schedule: Q07DX003 (ip), vehicle: saline 101 % of control | dose: 2.0 mg/kg/injection, schedule: Q## X006 (ip), vehicle: saline 119 % of control | dose: 2.0 mg/kg/injection, schedule: Q#A X002 (ip), vehicle: saline 93 % of control | dose: 4.0 mg/kg/injection, schedule: Q01DX001 (oral), vehicle: saline 101 % of control and 109 % of control | dose: 4.0 mg/kg/injection, schedule: Q01DX005 (oral), vehicle: saline 94 % of control | dose: 4.0 mg/kg/injection, schedule: Q#A X002 (ip), vehicle: saline 101 % of control and 108 % of control | dose: 8.0 mg/kg/injection, schedule: Q01DX001 (oral), vehicle: saline 92 % of control and 97 % of control | dose: 8.0 mg/kg/injection, schedule: Q01DX005 (oral), vehicle: saline 100 % of control | dose: 8.0 mg/kg/injection, schedule: Q#A X002 (ip), vehicle: saline 97 % of control | dose: 16.0 mg/kg/injection, schedule: Q01DX001 (ip), vehicle: saline 101 % of control | dose: 16.0 mg/kg/injection, schedule: Q01DX001 (oral), vehicle: saline 96 % of control and 98 % of control and 106 % of control | dose: 16.0 mg/kg/injection, schedule: Q#A X002 (ip), vehicle: saline 89 % of control | dose: 32.0 mg/kg/injection, schedule: Q01DX001 (ip), vehicle: saline 100 % of control | dose: 32.0 mg/kg/injection, schedule: Q01DX001 (oral), vehicle: saline 89 % of control and 92 % of control and 109 % of control | dose: 32.0 mg/kg/injection, schedule: Q#A X002 (ip), vehicle: saline 86 % of control | dose: 64.0 mg/kg/injection, schedule: Q01DX001 (oral), vehicle: saline 103 % of control and 107 % of control and 86 % of control | dose: 64.0 mg/kg/injection, schedule: Q#A X002 (ip), vehicle: saline 88 % of control | dose: 128.0 mg/kg/injection, schedule: Q01DX001 (ip), vehicle: saline 88 % of control | dose: 128.0 mg/kg/injection, schedule: Q01DX001 (oral), vehicle: saline 93 % of control and 103 % of control and 107 % of control | dose: 128.0 mg/kg/injection, schedule: Q#A X002 (ip), vehicle: saline 86 % of control | dose: 256.0 mg/kg/injection, schedule: Q01DX001 (oral), vehicle: saline 103 % of control and 111 % of control

CC/C(=C(/CC)c1ccc(O)cc1)c1ccc(O)cc1
inactive: [7] 94 % of control | dose: 16.0 mg/kg/injection, schedule: Q01DX005 (ip), vehicle: saline with Tween-80 101 % of control | dose: 16.0 mg/kg/injection, schedule: Q01DX005 (ip), vehicle: saline 100 % of control | dose: 32.0 mg/kg/injection, schedule: Q01DX005 (ip), vehicle: saline with Tween-80 112 % of control | dose: 32.0 mg/kg/injection, schedule: Q01DX005 (ip), vehicle: saline 99 % of control | dose: 64.0 mg/kg/injection, schedule: Q01DX005 (ip), vehicle: saline with Tween-80 100 % of control | dose: 64.0 mg/kg/injection, schedule: Q01DX005 (ip), vehicle: saline 110 % of control

N[C@@H](Cc1ccc(N(CCCl)CCCl)cc1)C(=O)O
inactive: [1] 103 % of control | [2] 106 % of control and 110 % of control | [3] 88 % of control | [4] 96 % of control and 109 % of control and 110 % of control | [5] 102 % of control | [6] 98 % of control and 108 % of control | dose: 4.0 mg/kg/injection, schedule: Q01DX005 (ip), vehicle: saline 111 % of control | dose: 8.0 mg/kg/injection, schedule: Q01DX001 (ip), vehicle: saline 119 % of control | [7] 100 % of control

O=C(N[C@H](CO)[C@H](O)c1ccc([N+](=O)[O-])cc1)C(Cl)Cl
inactive: dose: 90.0 mg/kg/injection, schedule: Q01DX005 (ip), vehicle: saline with Tween-80 97 % of control | dose: 180.0 mg/kg/injection, schedule: Q01DX005 (ip), vehicle: saline with Tween-80 95 % of control and 100 % of control | dose: 360.0 mg/kg/injection, schedule: Q01DX005 (ip), vehicle: saline with Tween-80 87 % of control and 101 % of control | dose: 720.0 mg/kg/injection, schedule: Q01DX005 (ip), vehicle: saline with Tween-80 98 % of control
